Target: F508del-CFTR (Homo sapiens, UniProt P13569, DEL508-508)
Assay: HS-YFP iodide-influx fluorescence quenching assay, […] h incubation, Hill fit
Format: cell-based
Settings: read-out: half-effective concentration

Sequence of F508del-CFTR (P13569 with tags, fused parts or gaps DEL508-508): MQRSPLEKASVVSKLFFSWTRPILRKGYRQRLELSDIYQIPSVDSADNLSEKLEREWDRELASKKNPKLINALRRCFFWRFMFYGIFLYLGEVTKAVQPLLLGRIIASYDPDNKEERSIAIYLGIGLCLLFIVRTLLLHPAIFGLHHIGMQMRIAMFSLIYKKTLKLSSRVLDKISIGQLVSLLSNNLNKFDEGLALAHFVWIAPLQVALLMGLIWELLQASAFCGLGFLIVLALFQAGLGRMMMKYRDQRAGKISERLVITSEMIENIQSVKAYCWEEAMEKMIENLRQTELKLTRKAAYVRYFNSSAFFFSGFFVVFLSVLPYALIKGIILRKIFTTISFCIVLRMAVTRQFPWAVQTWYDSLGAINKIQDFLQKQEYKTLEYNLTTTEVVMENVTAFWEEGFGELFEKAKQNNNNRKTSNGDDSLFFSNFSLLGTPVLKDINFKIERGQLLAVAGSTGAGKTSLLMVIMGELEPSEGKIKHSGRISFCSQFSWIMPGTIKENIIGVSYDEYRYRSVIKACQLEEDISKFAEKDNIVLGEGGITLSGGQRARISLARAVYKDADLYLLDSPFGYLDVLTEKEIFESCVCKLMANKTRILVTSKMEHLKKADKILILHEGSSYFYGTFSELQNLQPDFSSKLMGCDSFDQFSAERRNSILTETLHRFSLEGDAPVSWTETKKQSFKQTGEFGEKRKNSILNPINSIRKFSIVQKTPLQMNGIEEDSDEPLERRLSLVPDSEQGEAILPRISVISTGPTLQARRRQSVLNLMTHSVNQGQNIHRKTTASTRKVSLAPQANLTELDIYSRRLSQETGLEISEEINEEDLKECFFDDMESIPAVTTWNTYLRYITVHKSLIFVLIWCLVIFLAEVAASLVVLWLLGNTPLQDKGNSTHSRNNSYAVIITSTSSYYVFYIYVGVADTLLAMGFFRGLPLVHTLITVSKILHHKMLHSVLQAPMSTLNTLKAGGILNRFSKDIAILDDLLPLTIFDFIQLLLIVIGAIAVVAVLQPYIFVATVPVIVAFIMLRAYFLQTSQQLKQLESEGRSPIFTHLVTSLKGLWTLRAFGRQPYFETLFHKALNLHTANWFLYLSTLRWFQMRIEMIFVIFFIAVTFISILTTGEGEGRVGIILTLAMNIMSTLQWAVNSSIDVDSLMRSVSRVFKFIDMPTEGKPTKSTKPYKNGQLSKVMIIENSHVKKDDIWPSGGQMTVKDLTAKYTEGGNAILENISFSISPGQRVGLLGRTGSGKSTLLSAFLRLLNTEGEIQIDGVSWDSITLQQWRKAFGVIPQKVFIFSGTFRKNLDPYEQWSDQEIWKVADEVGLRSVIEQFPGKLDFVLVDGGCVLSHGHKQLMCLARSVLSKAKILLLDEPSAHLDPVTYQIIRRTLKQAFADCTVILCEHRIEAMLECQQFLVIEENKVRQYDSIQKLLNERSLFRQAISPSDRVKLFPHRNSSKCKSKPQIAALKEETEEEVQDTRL

EC50: 5 µM
SMILES: COc1ccc(Cl)cc1NC(=O)c1cc2c([nH]1)-c1nc(NC(=O)C(C)(C)C)sc1CC2 [compound 44, N-(5-Chloro-2-Methoxyphenyl)-2-[(2,2-Dimethylpropanoyl)Amino]-5,8-Dihydro-4H-[1,3]Thiazolo[5,4-g]Indole-7-Carboxamide]
